Data reported in patent publication US20240101571A1, “NLRP3 MODULATORS” (Zomagen Biosciences Ltd, priority 2020, published 2024).

Key:
[1] = test system: IL-1b; assay: Human Whole Blood (HWB) IL-1b Assay; type: cell-based; conditions: compound 0.5 h, 100 ng/mL LPS 3.5 h, 5 mM ATP 45 min, IL-1b ELISA of supernatant
Description: Assay run as in Tran et al. “Whole blood assay as a model for in vitro evaluation of inflammasome activation and subsequent caspase-mediated interleukin-1 beta release” PLoSONE 14(4): e0214999.https://doi.org/10.1371/journal.pone.0214999. Namely, freshly drawn human whole blood with anti-coagulant was incubated with test compounds at various titration points for 0.5 hrs at 37° C. in 5% CO2. The cells were subsequently primed with 100 ng/mL LPS for 3.5 hours at 37° C. followed by stimulation with 5 mM ATP for an additional 45 minutes. The supernatant was harvested and analyzed for human IL-1b concentration using commercially available ELISA kits.

[2] = test system: IL-1b; assay: Mouse BMDM IL-1b Assay; type: cell-based; conditions: Macrophage, C57BL6 bone marrow derived macrophages, 200 ng/mL LPS 3 h, compound 30 min, 5 mM ATP 45 min, IL-1b ELISA of supernatant
Description: Mouse bone marrow cells from C57BL6 tibia and femur were culture in complete Isocov's Media supplemented with 20 ng/mL MCSF (BMDM media) at a density of 50 million cells/15 cm Petri dish. Fresh media was changed every 3 days, and bone marrow derived macrophages were collected, washed, and counted on day 7. Cells were seeded into 96 well plates at a density of 5×10^4 cells per well in 100 uL of BMDM media and cultured overnight. The cells were stimulated at 37° C. with 200 ng/mL Ultrapure LPS-B5 for 3 hours before pre-diluted compounds were added. 30 minutes after compound addition, 5 mM ATP was added for the secondary stimulation for 45 minutes. After stimulation, the plates were briefly spun down, and 50 uL of supernatant was harvested from each well. ELISA for mouse IL-1b was performed with 1:10 and 1:100 diluted supernatant using pre-coated kits. IL-1b concentrations were calculated based on pre-titrated standards, and compound inhibition IC50 is generated using the Levenberg Marquardt damped lease-square method.

| SMILES | IC50 [1] | IC50 [2] |
| --- | --- | --- |
| O=C(Nc1c2c(cc3c1CCC3)CCC2)NS(=O)(=O)c1cc2c(o1)C1CCN(CC1)C2 [Compound 13, sodium ((1,2,3,5,6,7-hexahydro-s-indacen-4-yl)carbamoyl)((4,6,7,8-tetrahydro-5,8-ethanofuro[3,2-c]azepin-2-yl)sulfonyl)amide] | < 1000 nM | < 100 nM |
| CC(C)c1ccc2c(c1NC(=O)NS(=O)(=O)c1cc3c(o1)C1CCN(CC1)C3)CCC2 [Compound 29, N-((5-isopropyl-2,3-dihydro-1H-inden-4-yl)carbamoyl)-4,6,7,8-tetrahydro-5,8-ethanofuro[3,2-c]azepine-2-sulfonamide] | < 1000 nM | – |
| O=C(Nc1c(C2CCOCC2)ccc2c1CCC2)NS(=O)(=O)c1cc2c(o1)C1CCN(CC1)C2 [Compound 37, N-((5-(tetrahydro-2H-pyran-4-yl)-2,3-dihydro-1H-inden-4-yl)carbamoyl)-4,6,7,8-tetrahydro-5,8-ethanofuro[3,2-c]azepine-2-sulfonamide] | 1000 to 10000 nM | – |
| O=C(Nc1c2c(cc3c1CCO3)CCC2)NS(=O)(=O)c1cc2c(o1)C1CCN(CC1)C2 [Compound 40, N-((3,5,6,7-tetrahydro-2H-indeno[5,6-b]furan-4-yl)carbamoyl)-4,6,7,8-tetrahydro-5,8-ethanofuro[3,2-c]azepine-2-sulfonamide] | < 1000 nM | – |
| N#Cc1c2c(c(NC(=O)NS(=O)(=O)c3cc4c(o3)C3CCN(CC3)C4)c3c1CCC3)CCC2 [Compound 33, N-((8-cyano-1,2,3,5,6,7-hexahydro-s-indacen-4-yl)carbamoyl)-4,6,7,8-tetrahydro-5,8-ethanofuro[3,2-c]azepine-2-sulfonamide] | 1000 to 10000 nM | – |
| CC#Cc1ccc2c(c1NC(=O)NS(=O)(=O)c1cc3c(o1)C1CCN(CC1)C3)CCC2 [Compound 44, N-((5-(prop-1-yn-1-yl)-2,3-dihydro-1H-inden-4-yl)carbamoyl)-4,6,7,8-tetrahydro-5,8-ethanofuro[3,2-c]azepine-2-sulfonamide] | 1000 to 10000 nM | – |
| O=C(Nc1c(C2CCCC2)ccc2c1CCC2)NS(=O)(=O)c1cc2c(o1)C1CCN(CC1)C2 [Compound 39, N-((5-cyclopentyl-2,3-dihydro-1H-inden-4-yl)carbamoyl)-4,6,7,8-tetrahydro-5,8-ethanofuro[3,2-c]azepine-2-sulfonamide] | 1000 to 10000 nM | – |
| COc1cc(-c2ccc3c(c2NC(=O)NS(=O)(=O)c2cc4c(o2)C2CCN(CC2)C4)CCC3)ccn1 [Compound 27, N-((5-(2-methoxypyridin-4-yl)-2,3-dihydro-1H-inden-4-yl)carbamoyl)-4,6,7,8-tetrahydro-5,8-ethanofuro[3,2-c]azepine-2-sulfonamide] | < 1000 nM | – |
| O=C(Nc1c(C2=CCC2)ccc2c1CCC2)NS(=O)(=O)c1cc2c(o1)C1CCN(CC1)C2 [Compound 43, N-((5-(cyclobut-1-en-1-yl)-2,3-dihydro-1H-inden-4-yl)carbamoyl)-4,6,7,8-tetrahydro-5,8-ethanofuro[3,2-c]azepine-2-sulfonamide] | 1000 to 10000 nM | – |
| CC(C)c1c(F)c(Cl)c(F)c(C(C)C)c1NC(=O)NS(=O)(=O)c1cc2c(o1)C1CCN(CC1)C2 [Compound 35, N-((4-chloro-3,5-difluoro-2,6-diisopropylphenyl)carbamoyl)-4,6,7,8-tetrahydro-5,8-ethanofuro[3,2-c]azepine-2-sulfonamide] | < 1000 nM | – |
| CC(C)c1ccc(F)c(C(C)C)c1NC(=O)NS(=O)(=O)c1cc2c(o1)C1CCN(CC1)C2 [Compound 31, N-((3-fluoro-2,6-diisopropylphenyl)carbamoyl)-4,6,7,8-tetrahydro-5,8-ethanofuro[3,2-c]azepine-2-sulfonamide] | < 1000 nM | – |
| O=C(Nc1c2c(cc3c1CCC3)CCC2)NS(=O)(=O)c1cc2c(s1)C1CCN(CC1)C2 [Compound 25] | < 1000 nM | – |
| O=C(Nc1c(C2CCC2)ccc2c1CCC2)NS(=O)(=O)c1cc2c(o1)C1CCN(CC1)C2 [Compound 42, N-((5-cyclobuty1-2,3-dihydro-1H-inden-4-yl)carbamoyl)-4,6,7,8-tetrahydro-5,8-ethanofuro[3,2-c]azepine-2-sulfonamide] | 1000 to 10000 nM | – |
| CC(C)c1c(F)cc(F)c(C(C)C)c1NC(=O)NS(=O)(=O)c1cc2c(o1)C1CCN(CC1)C2 [Compound 36, N-((3,5-difluoro-2,6-diisopropylphenyl)carbamoyl)-4,6,7,8-tetrahydro-5,8-ethanofuro[3,2-c]azepine-2-sulfonamide] | 1000 to 10000 nM | – |
| O=C(Nc1c2c(cc3c1CCC3)CCC2)NS(=O)(=O)c1cc2c(s1)C1CCN(CC1)C2 [Compound 26, sodium ((1,2,3,5,6,7-hexahydro-s-indacen-4-yl)carbamoyl)((4,6,7,8-tetrahydro-5,8-ethanothieno[3,2-c]azepin-2-yl)sulfonyl)amide] | – | < 100 nM |
| O=C(Nc1c2c(c(F)c3c1CCC3)CCC2)NS(=O)(=O)c1cc2c(o1)C1CCN(CC1)C2 [Compound 32, N-((8-fluoro-1,2,3,5,6,7-hexahydro-s-indacen-4-yl)carbamoyl)-4,6,7,8-tetrahydro-5,8-ethanofuro[3,2-c]azepine-2-sulfonamide] | < 1000 nM | – |
| CC(C)c1cc(F)cc(C(C)C)c1NC(=O)NS(=O)(=O)c1cc2c(o1)C1CCN(CC1)C2 [Compound 34, N-((4-fluoro-2,6-diisopropylphenyl)carbamoyl)-4,6,7,8-tetrahydro-5,8-ethanofuro[3,2-c]azepine-2-sulfonamide] | 1000 to 10000 nM | – |
| CC(C)c1cc(F)c2c(c1NC(=O)NS(=O)(=O)c1cc3c(o1)C1CCN(CC1)C3)CCC2 [Compound 30, N-((7-fluoro-5-isopropyl-2,3-dihydro-1H-inden-4-yl)carbamoyl)-4,6,7,8-tetrahydro-5,8-ethanofuro[3,2-c]azepine-2-sulfonamide] | < 1000 nM | – |
| COc1cc(-c2ccc3c(c2NC(=O)NS(=O)(=O)c2cc4c(s2)C2CCN(CC2)C4)CCC3)ccn1 [Compound 28, N-((5-(2-methoxypyridin-4-yl)-2,3-dihydro-1H-inden-4-yl)carbamoyl)-4,6,7,8-tetrahydro-5,8-ethanothieno[3,2-c]azepine-2-sulfonamide] | < 1000 nM | – |
| O=C(Nc1c(C2CC2)ccc2c1CCC2)NS(=O)(=O)c1cc2c(o1)C1CCN(CC1)C2 [Compound 38, N-((5-cyclopropyl-2,3-dihydro-1H-inden-4-yl)carbamoyl)-4,6,7,8-tetrahydro-5,8-ethanofuro[3,2-c]azepine-2-sulfonamide] | < 1000 nM | – |
| O=C(Nc1c(C(F)(F)F)ccc2c1CCC2)NS(=O)(=O)c1cc2c(o1)C1CCN(CC1)C2 [Compound 41, N-((5-(trifluoromethyl)-2,3-dihydro-1H-inden-4-yl)carbamoyl)-4,6,7,8-tetrahydro-5,8-ethanofuro[3,2-c]azepine-2-sulfonamide] | < 1000 nM | – |
